Measurements taken from patent publication US20230053540A1, “TREATMENT OF LIVER INJURY” (Massachusetts Institute of Technology, priority 2019, published 2023).

System: hepatocytes
Experiment: Seq-Well scRNA-Seq of hepatocytes after APAP overdose (signature scores, DEG vs untreated)
Format: in vivo, mouse
[1] = time point A6 vs untreated (UT)

CC(=O)Nc1ccc(O)cc1 [APAP, acetaminophen]
avg_logFC Mrpl42 [1]: −0.2845
avg_logFC Mrps18c [1]: −0.3663
avg_logFC Msn [1]: 0.2602
avg_logFC Mup2 [1]: −0.5045
avg_logFC Mvd [1]: −0.2704
avg_logFC Myo1b [1]: 0.2624
avg_logFC Naprt1 [1]: −0.3381
avg_logFC Ndufa1 [1]: −0.3645
avg_logFC Ndufb3 [1]: −0.3272
avg_logFC Ndufb8 [1]: −0.3481
avg_logFC Ndufc1 [1]: −0.3444
avg_logFC Ndufs4 [1]: −0.3132
avg_logFC Ndufs8 [1]: −0.3614
avg_logFC Ndufv3 [1]: −0.3971
avg_logFC Nedd8 [1]: −0.3564
avg_logFC Nedd41 [1]: 0.2812
avg_logFC Net1 [1]: 0.3479
avg_logFC Nop10 [1]: −0.2919
avg_logFC Nrp1 [1]: 0.3608
avg_logFC Nucks1 [1]: 0.3558
avg_logFC Nudt4 [1]: 0.2542
avg_logFC Oaz1 [1]: −0.3472
avg_logFC Otc [1]: −0.299
avg_logFC Pacsin2 [1]: 0.3708
avg_logFC Palld [1]: 0.3414
avg_logFC Pank1 [1]: −0.3527
avg_logFC Paqr9 [1]: −0.3323
avg_logFC Pet100 [1]: −0.28
avg_logFC Phc2 [1]: 0.312
avg_logFC Pi4k2a [1]: 0.3536
avg_logFC Pik3c2a [1]: 0.3249
avg_logFC Plk3 [1]: 0.4166
avg_logFC Pnkd [1]: −0.2928
avg_logFC Ppp1r12a [1]: 0.3563
avg_logFC Prdx5 [1]: −0.2821
avg_logFC Proc [1]: −0.2707
avg_logFC Psmb1 [1]: −0.3585
avg_logFC Psmb3 [1]: −0.3303
avg_logFC Psmb6 [1]: −0.3194
avg_logFC Ptp4a1 [1]: 0.2627
avg_logFC Ptpn2 [1]: 0.2734
avg_logFC Ptpn12 [1]: 0.3342
avg_logFC Purb [1]: 0.3525
avg_logFC Pvrl2 [1]: −0.2613
avg_logFC Pxk [1]: 0.2819
avg_logFC Pxmp2 [1]: −0.3671
avg_logFC Rab6a [1]: 0.3234
avg_logFC Rbm25 [1]: 0.4215
avg_logFC Rexo2 [1]: −0.3263
avg_logFC Rlim [1]: 0.3102
avg_logFC Rnaseh2c [1]: −0.3257
avg_logFC Romo1 [1]: −0.3359
avg_logFC Rps3 [1]: −0.3493
avg_logFC Rps9 [1]: −0.3718
avg_logFC Rps10 [1]: −0.3369
avg_logFC Rps21 [1]: −0.3645
avg_logFC Rsl1d1 [1]: 0.3461
avg_logFC S100a1 [1]: −0.3743
avg_logFC Sar1b [1]: −0.3079
avg_logFC Sbno1 [1]: 0.3671
avg_logFC Sc4mol [1]: −0.3262
avg_logFC Scaf11 [1]: 0.3598
avg_logFC Scd1 [1]: −0.4661
avg_logFC Sdhb [1]: −0.2896
avg_logFC Sdhd [1]: −0.3353
avg_logFC Sdr9c7 [1]: −0.26
avg_logFC Sdsl [1]: 0.2593
avg_logFC Sec61b [1]: −0.2903
avg_logFC Selk [1]: −0.3383
avg_logFC Sf1 [1]: 0.3023
avg_logFC Sfpq [1]: 0.394
avg_logFC Sgk1 [1]: 0.2843
avg_logFC Shb [1]: 0.3152
avg_logFC Sigmar1 [1]: −0.3055
avg_logFC Sirt3 [1]: −0.346
avg_logFC Slc2a2 [1]: −0.3123
avg_logFC Slc10a1 [1]: −0.3258
avg_logFC Slco1a1 [1]: −0.3628
avg_logFC Slco1a4 [1]: 0.3137
avg_logFC Slirp [1]: −0.3085
avg_logFC Smap2 [1]: 0.3489
avg_logFC Smdt1 [1]: −0.3673
avg_logFC Smg1 [1]: 0.335
avg_logFC Srsf11 [1]: 0.4012
avg_logFC Stbd1 [1]: −0.2732
avg_logFC Stk17b [1]: 0.2911
avg_logFC Stom [1]: 0.3232
avg_logFC Sult1d1 [1]: −0.3165
avg_logFC Tbl1xr1 [1]: 0.3075
avg_logFC Tcea3 [1]: −0.355
avg_logFC Tceb2 [1]: −0.3207
avg_logFC Tgm2 [1]: 0.3993
avg_logFC Tgoln1 [1]: 0.2657
avg_logFC Timm8b [1]: −0.3936
avg_logFC Tjp1 [1]: 0.2862
avg_logFC Tm7sf2 [1]: −0.3164
avg_logFC Tmbim6 [1]: −0.2711
avg_logFC Tmem37 [1]: −0.2822
avg_logFC Tmem86b [1]: −0.2582
avg_logFC Tmem106b [1]: 0.2802
avg_logFC Tmem147 [1]: −0.2838
avg_logFC Tmem150a [1]: −0.2535
avg_logFC Tmem160 [1]: −0.339
avg_logFC Tmem242 [1]: −0.2725
avg_logFC Tmem243 [1]: −0.3791
avg_logFC Tmem258 [1]: −0.2769
avg_logFC Tnks2 [1]: 0.3176
avg_logFC Tob1 [1]: −0.3387
avg_logFC Tpr [1]: 0.4409
avg_logFC Tsc22d1 [1]: −0.2997
avg_logFC Tspo [1]: −0.3157
avg_logFC Txn1 [1]: −0.3091
avg_logFC Ubl5 [1]: −0.3033
avg_logFC Ucp2 [1]: 0.2612
avg_logFC Ugt2a3 [1]: −0.3075
avg_logFC Uqcc2 [1]: −0.3269
avg_logFC Wdr43 [1]: 0.3438
avg_logFC Yap1 [1]: 0.3281
avg_logFC Zfp683 [1]: −0.4217
avg_logFC Zyx [1]: 0.2983
avg_logFC mmu-mir-6236 [1]: 0.5206
Adck3 pct.1 (time point A24): 0.68
Arhgap5 pct.1 (time point A24): 0.566
Arhgef12 pct.1 (time point A24): 0.541
Arl5a pct.1 (time point A24): 0.459
Atp1a1 pct.1 (time point A24): 0.532
Atp5e pct.1 (time point A24): 0.688
Atp5f1 pct.1 (time point A24): 0.8
Atp6v1f pct.1 (time point A24): 0.244
Atp11c pct.1 (time point A24): 0.649
Atp13a3 pct.1 (time point A24): 0.546
Azin1 pct.1 (time point A24): 0.46
Bnip3 pct.1 (time point A24): 0.39
Brd2 pct.1 (time point A24): 0.512
Bzw1 pct.1 (time point A24): 0.487
Cald1 pct.1 (time point A24): 0.79
Caprin1 pct.1 (time point A24): 0.567
Ces3b pct.1 (time point A24): 0.683
Copb2 pct.1 (time point A24): 0.595
Copz1 pct.1 (time point A24): 0.501
Cox7b pct.1 (time point A24): 0.768
Cpne3 pct.1 (time point A24): 0.456
Ctnnb1 pct.1 (time point A24): 0.566
Cyp4a14 pct.1 (time point A24): 0.245
Cyp27a1 pct.1 (time point A24): 0.759
Ddost pct.1 (time point A24): 0.493
Dennd5b pct.1 (time point A24): 0.476
Deptor pct.1 (time point A24): 0.583
Dnajb9 pct.1 (time point A24): 0.373
Dnajb11 pct.1 (time point A24): 0.557
Eci1 pct.1 (time point A24): 0.581
Edem1 pct.1 (time point A24): 0.566
Ehhadh pct.1 (time point A24): 0.552
Eif4b pct.1 (time point A24): 0.542
Ell2 pct.1 (time point A24): 0.552
Eprs pct.1 (time point A24): 0.587
Erbb2ip pct.1 (time point A24): 0.482
Erp44 pct.1 (time point A24): 0.469
Esd pct.1 (time point A24): 0.67
Fam120a pct.1 (time point A24): 0.51
Fasn pct.1 (time point A24): 0.449
Fcgrt pct.1 (time point A24): 0.461
Gch1 pct.1 (time point A24): 0.502
Gm23935 pct.1 (time point A24): 0.919
Gm24245 pct.1 (time point A24): 0.369
Gpam pct.1 (time point A24): 0.329
Grlf1 pct.1 (time point A24): 0.413
Gstm3 pct.1 (time point A24): 0.293
H6pd pct.1 (time point A24): 0.675
Id3 pct.1 (time point A24): 0.278
Ide pct.1 (time point A24): 0.604
Iqgap2 pct.1 (time point A24): 0.748
Ireb2 pct.1 (time point A24): 0.469
Jak1 pct.1 (time point A24): 0.482
Lasp1 pct.1 (time point A24): 0.361
Lgr4 pct.1 (time point A24): 0.399
Lpin2 pct.1 (time point A24): 0.7
Macf1 pct.1 (time point A24): 0.349
Magt1 pct.1 (time point A24): 0.52
Man2a1 pct.1 (time point A24): 0.675
Mbnl1 pct.1 (time point A24): 0.428
Met pct.1 (time point A24): 0.434
Mt1 pct.1 (time point A24): 0.41
Mtss1 pct.1 (time point A24): 0.581
Nadk2 pct.1 (time point A24): 0.539
Narf pct.1 (time point A24): 0.411
Ndufa6 pct.1 (time point A24): 0.692
Ndufb6 pct.1 (time point A24): 0.636
Ndufc2 pct.1 (time point A24): 0.465
Nop10 pct.1 (time point A24): 0.227
Nr1i3 pct.1 (time point A24): 0.237
Nrp1 pct.1 (time point A24): 0.426
Osbp19 pct.1 (time point A24): 0.569
Osbpl1a pct.1 (time point A24): 0.592
Ostc pct.1 (time point A24): 0.514
Pik3c2a pct.1 (time point A24): 0.36
Plin5 pct.1 (time point A24): 0.181
Prdx4 pct.1 (time point A24): 0.47
Prdx5 pct.1 (time point A24): 0.731
Prkaa2 pct.1 (time point A24): 0.451
Prox1 pct.1 (time point A24): 0.477
Proz pct.1 (time point A24): 0.622
